The values that follow come from patent publication US20060123501A1, “Method for treating inflammatory disorders” (priority 2004, published 2006).

For series [1], the system named is splenic B cells. Nature of the series: Proliferation of splenic B cells cultured with LPS. It counts as cell-based, mouse. The settings on record: cIAP2−/− splenic B cells; LPS 0.1 to 100 μg/ml. As to the method:
(§1) Spleen- and peritoneal-derived macrophage cell count numbers are shown (A) for cIAP2^−/−, cIAP2^+/− and cIAP2^+/+ mice (n=10). Both cIAP2^−/− and littermate control-derived macrophages stained for the LPS binding surface receptor CD14 (B). The proliferation of B cells for cIAP2^−/− mice and littermate controls of cIAP2^+/+ after culturing with the indicated range of LPS doses (n=6) (C). Cultured macrophages from cIAP2^−/− or littermate control cIAP2^+/+ mice were exposed to LPS for 10 h and subsequently IL-1β (D) or TNF-α (E) levels were measured by ELISA (n=6). Additionally, macrophages were exposed to the indicated range of LPS doses for 24 h and IL-1β (F) or TNF-α (G) levels were determined (n=6). Results are mean±s.d. in triplicate per mouse, P<0.01
This dysfunction may be correlated to a reduced initial number of macrophages, to a block in the LPS-induced signaling pathway, or to an increased apoptotic susceptibility of the cIAP2^−/− macrophages. […] The cIAP2^−/− mice and wild-type macrophages also stained similarly for the LPS-binding receptor, CD14 (FIG. 4B).

Series [2] has as its system xiap, ciap1 and ciap2 mRNA. Kind of series: iap mRNA levels of LPS-treated peritoneal macrophages (quantitative RT-PCR). It counts as cell-based, mouse. As to the method:
The iap mRNA levels of LPS-treated peritoneal macrophages derived from wild type C57Bl/6 mice relative to untreated controls were assayed. (A) xiap, ciap1, and ciap2 message levels of macrophages exposed to a range of LPS doses relative to untreated controls. (B) ciap2 mRNA message of macrophages exposed to LPS was assayed over 24 h. Results are mean±s.d. (n=5, average of triplicate wells per mouse, P<0.05).
LPS-induced activation of macrophages causes the upregulation of a multitude of genes, including the production/release of inflammatory mediators, the upregulation of cell surface receptors and of cell survival proteins. […] Therefore, the iap mRNA levels of LPS-treated macrophages, derived from the peritoneal cavity, were assayed relative to untreated controls. Peritoneal macrophages were cultured at 10^5 cell/well (96 well, flat bottom plate) and exposed to varying concentrations of LPS for 18 hours. […] In contrast, ciap2 levels increased dramatically, up to 30 fold above untreated controls (P<0.01 for all LPS doses) (FIG. 2A). The innate immune system provides protection within the first minutes to hours after a pathogenic challenge.
mRNA was extracted from mouse embryonic fibroblasts or peritoneal macrophages using Qiagen Rneasy 96 wells extraction kit (Qiagen, Mississauga, ON, Canada) and run on a TaqMan® instrument (Perkin-Elmer, Foster City, Calif.) using specific DNA probes for murine xiap, ciap1 and 2 and the TaqMan® EZ RT-PCR kit (Qiagen, Mississauga, ON, Canada).

Series [3] deals with cIAP2−/− mice and littermate controls. The settings on record: for LD100: i.p. Here is the method:
Mice were injected IP with a range of indicated LPS doses (n=15).
Schoemaker et al. proposed an important role of cIAP2 in LPS-induced death of liver cells sensitized to endotoxic shock by D-galactosamine (DGLN) (22). […] Thus to investigate the role of cIAP2 in an innate immune response, the cIAP2^−/− mice were treated with LPS.
Adult 4-6 week old mice (n=6 to 10) were injected intraperitoneally (i.p.) with a range of LPS doses (10 to 200 mg LPSD/kg) from E. coli (Sigma) in a total volume of 0.2 ml nonpyrogenic saline.

Series [4] concerns cIAP2−/− and control mice. From the text: In addition, we exposed cIAP2^−/− mice to a second mode of LPS-induced toxicity, where treatment with D-galactosamine (DGLBN) sensitized mice to endotoxic shock.
In series [5] the test system is peritoneal macrophages. Nature of the series: TNF-α and IL-1β production of cultured peritoneal macrophages exposed to LPS (ELISA). It counts as cell-based, mouse. The settings on record: cIAP2−/− peritoneal macrophages; LPS 0.1 to 1000 ng/ml; 10 and 24 h. As to the method:
as §1
This dysfunction may be correlated to a reduced initial number of macrophages, to a block in the LPS-induced signaling pathway, or to an increased apoptotic susceptibility of the cIAP2^−/− macrophages. […]
T and B cells were isolated from mouse lymphoid tissue (spleen) by first mincing and then pressing the tissue through a 10 μm metal mesh and were then counted by using trypan blue exclusion method. […] The resulting cells were then counted by using typan blue exclusion and Diff Quik™ Stain Kit (IMEB INC, San Marcos, Calif.). […] Concentrations of TNF-α and IL-1β, in primary tissue culture supernatants were determined by ELISA kit (R&D Systems).
In general terms: An ELISA detects its analyte on a solid surface through an enzyme-linked reagent.

The mark [6] stands for this setting: wild type peritoneal macrophages, LPS 0.1 ng/ml to 10 mg/ml, 18 hours.

Read-outs that look alike come from different tables or passages of the source.

lipopolysaccharide [LPS]: the “B cell proliferation in response to LPS” value in series [1] is reported as “proliferated normally”. In series [2] (100 ng/1 ml LPS, within 1 hour, maintained for 24 hours), the “ciap2 mRNA upregulation above untreated controls” value is greater than 20 fold. Further, the “increase of ciap2 message above untreated controls” value in series [2] (peritoneal-derived macrophages, in less than one hour) is given as 2o. In series [2] (setting [6]), the “Xiap and ciap1 message levels” value is listed as “remained relatively unchanged”. The “ciap2 mRNA level increase above untreated controls” value in series [2] (setting [6]) is reported as “up to 30 fold”. Also, the Survival result in series [3] (all littermate controls, LPS dose of 60 mg/kg and above) was “did not survive past the first day”; in series [4] (cIAP2+/+ mice, LPS 0.5 μg/kg with D-galactosamine 0.6 g/kg i.p.), 6/6; in series [4] (cIAP2+/+ mice, LPS 1 μg/kg with D-galactosamine 0.6 g/kg i.p.), 6/6; in series [4] (cIAP2+/+ mice, LPS 5 μg/kg with D-galactosamine 0.6 g/kg i.p.), 2/6; in series [4] (cIAP2+/+ mice, LPS 10 μg/kg with D-galactosamine 0.6 g/kg i.p.) it was 0/6; in series [4] (cIAP2+/+ mice, LPS 20 μg/kg with D-galactosamine 0.6 g/kg i.p.), 0/6. In addition, the Survival in series [4] (cIAP2−/− mice, LPS 0.5 μg/kg with D-galactosamine 0.6 g/kg i.p.) is on record as 6/6; in series [4] (cIAP2−/− mice, LPS 1 μg/kg with D-galactosamine 0.6 g/kg i.p.), 6/6; in series [4] (cIAP2−/− mice, LPS 5 μg/kg with D-galactosamine 0.6 g/kg i.p.) it was 2/6; in series [4] (cIAP2−/− mice, LPS 10 μg/kg with D-galactosamine 0.6 g/kg i.p.), 0/6; in series [4] (cIAP2−/− mice, LPS 20 μg/kg with D-galactosamine 0.6 g/kg i.p.), 0/6. Moreover, in series [3] (cIAP2−/− mice, LPS dose of 200 mg LPS/kg), the Survival time fell in the range of 2 to 7 days. The LD100 in series [3] (cIAP2−/− mice) was 100 mg LPS/kg; in series [3] (control littermates), 35 mg LPS/kg. Moreover, the “Time within which all died” value in series [3] (control littermates, 40 mg LPS/kg) is reported as no more than 24 h. Besides, in series [3] (i.p. LPS), the “LD100 of cIAP2−/− mice compared to that of control littermates” value is on record as “approximately 3 ×”. In addition, the “Time to demise of the mice” value in series [4] (LPS with DGLN, cIAP2−/− mice and control littermates) is less than 3 h. The “TNF-α and IL-1β levels relative to littermate controls” value in series [5] is “generated comparable levels of TNF-α and IL-1β”.
